Where two headings read alike, the source gives them in different places.
Experiments:
AaDOP2 [1] = target: T1, AaDOP2 (Aedes aegypti, UniProt H6D5H2); assay: AaDOP2 agonist screen against the LOPAC1280 library; type: cell-based
Ae. aegypti L3 larvae = assay: whole plant or invertebrate; conditions: Aedes aegypti
AaDOP2 [2] = target: T1, AaDOP2; assay: HTRF cAMP accumulation concentration response assay (Cisbio Dynamic 2); type: cell-based
AaDOP2 [3] = target: T1, AaDOP2; assay: LOPAC1280 antagonist screen in HEK-CRELuc-Aadop2 cells; type: cell-based
Isdop2 = Isdop2 (Ixodes scapularis, UniProt A0ACM8DGL0); assay: cell-based; conditions: for inhibition at 10 µM: read-out: % Inhibition (of response to dopamine), Isdop2 screen
[4] = system: adult male Blatella germanica; assay: Cockroach assay of Table 16 (title contact assay, text feeding assay); type: in vivo; conditions: 200 mM compound
Text: (§1) A series of whole organism bioassays was developed to further evaluate the toxicity of chemistries to a range of agricultural, veterinary and public health pests and non-target insects (Tables 12 and 13). These assays are designed to rapidly explore the biological activity spectrum of chemistries as well as to facilitate initial investigations of the mode of action of insecticidal compounds. Briefly, assays were developed for the German cockroach (Blatella germanica, urban pest), termite (Reticulitermes flavipes; urban pest), lone star tick (Amblyomma americana; veterinary and public health pest), soybean aphid (Aphis glycines, agricultural pest) and honeybee (Apis mellifera; beneficial, non-target insect). The assays were designed to test the toxicity and speed of kill of multiple chemistries on contact. Each of these assays was performed as a single point dose experiment in triplicate using either topical application of compound to the ventral thorax ([…]; 50-80 μg effective dose depending on compound) as is the case for our cockroach and honeybee assays, or 10 second immersion in a solution of the compound diluted in water or DMSO:EtOH to a final concentration of 100 μM. The assays were conducted in 24-well plate format with mortality assessment following incubation at 22° C. as described above. Commercial insecticides were incorporated in these assays to provide a positive control and permit initial comparative analyses. Lead chemistries identified in our in vivo screen have been evaluated in the cockroach and termite assays.

[5] = system: adult male Blatella germanica; assay: Cockroach contact assay (topical application); type: in vivo; conditions: 200 mM compound
Text: as §1

[6] = 10 μM compound, percent of response to 1 μM dihydrexidine
[7] = 24 h, read-out: Toxicity to Aedes aegypti larvae (mortality) 24 hours
[8] = 48 h, read-out: Toxicity to Aedes aegypti larvae (mortality) 48 hours
[9] = 72 h, read-out: Toxicity to Aedes aegypti larvae (mortality) 72 hours
[10] = 10 μM compound, 300 nM dopamine, quadruplicate
[11] = AaDOP2 expressing cells in the presence of dopamine, No Inhibition = <10% inhibition at 3 μM test compound, read-out: IC50 ± S.E.M. (nM), HTRF cAMP assay

Chain of Isdop2 (A0ACM8DGL0 entry or part of it): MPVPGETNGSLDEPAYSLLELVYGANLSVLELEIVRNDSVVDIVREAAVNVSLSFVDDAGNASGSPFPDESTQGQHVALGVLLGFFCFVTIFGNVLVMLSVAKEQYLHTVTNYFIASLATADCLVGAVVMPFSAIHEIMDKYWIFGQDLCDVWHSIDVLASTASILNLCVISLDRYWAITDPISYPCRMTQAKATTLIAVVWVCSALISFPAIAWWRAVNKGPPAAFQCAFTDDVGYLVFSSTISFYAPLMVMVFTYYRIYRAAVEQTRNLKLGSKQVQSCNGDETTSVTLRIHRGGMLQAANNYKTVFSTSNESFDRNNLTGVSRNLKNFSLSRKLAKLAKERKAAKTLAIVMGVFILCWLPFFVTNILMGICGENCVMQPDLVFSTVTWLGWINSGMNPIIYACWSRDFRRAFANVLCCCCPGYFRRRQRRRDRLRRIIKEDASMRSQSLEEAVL
T1 sequence (H6D5H2 entry or part of it): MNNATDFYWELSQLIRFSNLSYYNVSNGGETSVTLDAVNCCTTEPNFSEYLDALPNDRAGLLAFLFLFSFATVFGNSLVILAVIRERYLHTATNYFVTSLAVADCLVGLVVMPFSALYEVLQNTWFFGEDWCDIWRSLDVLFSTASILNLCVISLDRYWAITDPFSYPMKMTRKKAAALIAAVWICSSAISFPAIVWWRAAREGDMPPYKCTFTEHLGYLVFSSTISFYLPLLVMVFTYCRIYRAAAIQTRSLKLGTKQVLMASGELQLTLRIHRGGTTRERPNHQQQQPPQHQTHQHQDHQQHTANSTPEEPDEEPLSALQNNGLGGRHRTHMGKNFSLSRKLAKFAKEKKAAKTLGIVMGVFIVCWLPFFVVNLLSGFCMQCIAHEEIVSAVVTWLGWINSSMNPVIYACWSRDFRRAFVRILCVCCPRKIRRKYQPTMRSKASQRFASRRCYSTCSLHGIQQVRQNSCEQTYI

With `CCCN(CCC)CCc1ccc(O)c(O)c1` [Dipropyldopamine] the “% of DHX” value (AaDOP2 [1]; [6]) was 38%.

`Nc1ncnc2c1ncn2[C@@H]1O[C@H](C(=O)NC2CC2)[C@@H](O)[C@H]1O` [CPCA] was tested, and the “% of DHX” value (AaDOP2 [1]; [6]) was 34%.

For `CNCCc1ccc(O)c(O)c1` [N-Methyldopamine], the “% of DHX” value (AaDOP2 [1]; [6]) was 107%.

For `CNCCC=C1c2ccccc2CCc2ccccc21` [Nortriptyline, 3-(10,11-dihydro-5H-dibenzo[a,d]cyclohepten-5-ylidene)-N-methyl-1-propanamine], the mortality at 400 µM (Ae. aegypti L3 larvae; [7]) was 43%, the mortality at 400 µM (Ae. aegypti L3 larvae; [8]) was 63% and the mortality at 400 µM (Ae. aegypti L3 larvae; [9]) was 73%. The IC50 (AaDOP2 [2]; IC50 ± S.E.M. (nM), HTRF cAMP assay) was 140 ± 50 nM, the “% of the SCH23390 effect” value (AaDOP2 [3]; [10]) was 96% and the “% inhibition of DA activity (Aedes cell-based assay screen)” value (from here on “% inhibition of DA activity”) (AaDOP2 [3]; LOPAC1280 screen hits) was 96%. The inhibition at 10 µM (Isdop2) was 79%.

`CNCCCC1c2ccccc2C=Cc2ccccc21` [Protriptyline, 3-(5H-dibenzo[a,d][7]annulen-5-yl)-N-methylpropan-1-amine] was tested, and the mortality at 400 µM (Ae. aegypti L3 larvae; [7]) was 37%, the mortality at 400 µM (Ae. aegypti L3 larvae; [8]) was 43% and the mortality at 400 µM (Ae. aegypti L3 larvae; [9]) was 53%. For the same compound, the IC50 (AaDOP2 [2]; read-out: IC50 ± S.E.M. (nM), HTRF cAMP assay) was 600 ± 250 nM, the “% inhibition of DA activity” value (AaDOP2 [3]) was 82% and the “% of the SCH23390 effect” value (AaDOP2 [3]) was 82%. The inhibition at 10 µM (Isdop2) was 75%.

With `C=CCN1CCc2cccc3c2[C@H]1Cc1ccc(O)c(O)c1-3` [R(−)-N-Allyl-NPA] the “% of DHX” value (AaDOP2 [1]; [6]) was 56%.

For `Nn1nnc2ccccc21` [1-Aminobenzotriazole], the “% of DHX” value (AaDOP2 [1]; [6]) was 75%.

In the case of `CN(C)CCCN1c2ccccc2CCc2ccccc21` [Imipramine, 3-(10,11-dihydro-5H-dibenzo[b,f]azepin-5-yl)-N,N-dimethylpropan-1-amine], the mortality at 400 µM (Ae. aegypti L3 larvae; [7]) is reported as 53%, the mortality at 400 µM (Ae. aegypti L3 larvae; [8]) is reported as 63% and the mortality at 400 µM (Ae. aegypti L3 larvae; [9]) is reported as 80%. The IC50 (AaDOP2 [2]; [11]) was 360 ± 30 nM, the “% of the SCH23390 effect” value (AaDOP2 [3]; [10]) was 96% and the “% inhibition of DA activity” value (AaDOP2 [3]; LOPAC1280 screen hits) was 96%. It also gave an inhibition at 10 µM (Isdop2) of 70%.

In the case of `COC(=O)N(C(=O)N1CO[C@@]2(C(=O)OC)Cc3cc(Cl)ccc3C2=N1)c1ccc(OC(F)(F)F)cc1` [Indoxacarb], the “% Mortality 24 hrs” value [4] is reported as 63%, the “% Mortality 48 hrs” value [4] is reported as 63% and the “% Mortality 72 hrs” value [4] is reported as 80%. The “% Mortality 120 hrs” value [4] was 100%, the “% Mortality 24 hrs” value [5] was 50% and the “% Mortality 48 hrs” value [5] was 50%. For the same compound, the “% Mortality 72 hrs” value [5] was 70%, the “% Mortality 120 hrs” value [5] was 100% and the “% Mortality 240 hrs” value [5] was 100%.

In the case of `Br.Oc1ccc(C2CNCc3sccc32)cc1O` (stereo not shown) [SKF 89626], the “% of DHX” value (AaDOP2 [1]; [6]) is reported as 101%.

For `CCN(c1nc(N)c(C(=O)NC(=N)N)nc1Cl)C(C)C` [EIPA], the “% of DHX” value (AaDOP2 [1]; [6]) was 73%.

`CN1CCC(=C2c3ccccc3CC(=O)c3sccc32)CC1` [Ketotifen, 4-(1-methylpiperidin-4-ylidene)-4,9-dihydro-10H-benzo[4,5]cyclohepta[1,2-b]thiophen-10-one] was tested, and the IC50 (AaDOP2 [2]; [11]) was 750 ± 180 nM, the “% of the SCH23390 effect” value (AaDOP2 [3]; [10]) was 96% and the “% inhibition of DA activity” value (AaDOP2 [3]; LOPAC1280 screen hits) was 96%.

For `Br.Cc1cccc(C2CN(C)CCc3c2cc(O)c(O)c3Cl)c1` (stereo not shown) [SKF 83959], the “% of DHX” value (AaDOP2 [1]; [6]) was 30% and the “% Inhibition (of response to dopamine), Isdop2 screen” value (Isdop2) was 87%.

In the case of `CCCCCCCC/C=C\CCCCCCCC(=O)NCCc1ccc(O)c(O)c1` [N-Oleoyldopamine], the “% of DHX” value (AaDOP2 [1]; [6]) is reported as 38%.

`CCCN1CCc2cccc3c2[C@H]1Cc1ccc(O)c(O)c1-3` [R(−)-Propyl-NPA] was tested, and the “% of DHX” value (AaDOP2 [1]; [6]) was 68%.

With `CC1=C[C@@H]2c3cccc4[nH]cc(c34)C[C@H]2N(C)C1` [Agroclavine] the “% of DHX” value (AaDOP2 [1]; [6]) was 93%.

`CC1(C)C(=O)N(CCN2CCC(C(=O)c3ccc(F)cc3)CC2)c2ccccc21.Cl` [LY310762, 1-[2-[4-(4-fluorobenzoyl)piperidin-1-yl]ethyl]-3,3-dimethylindol-2-one] showed a mortality at 400 µM (Ae. aegypti L3 larvae; 0.5 h, read-out: percent mortality 0.5 hr, 400 uM, L3 larvae, value for this scoring time) of 0%, a mortality at 400 µM (Ae. aegypti L3 larvae; 1 h, read-out: percent mortality 1 hr, 400 uM, L3 larvae, per scoring time) of 0% and a mortality at 400 µM (Ae. aegypti L3 larvae; 2 h, read-out: percent mortality 2 hr, 400 uM, L3 larvae, per scoring time) of 0%. It also gave a mortality at 400 µM (Ae. aegypti L3 larvae; 3 h, read-out: percent mortality 3 hr, 400 uM, L3 larvae, per scoring time) of 0%, a mortality at 400 µM (Ae. aegypti L3 larvae; 4 h, read-out: percent mortality 4 hr, 400 uM, L3 larvae, per scoring time) of 0% and a mortality at 400 µM (Ae. aegypti L3 larvae; 24 h, read-out: Toxicity to Aedes aegypti larvae (mortality) 24 hours, 400 μM, L3 larvae, three independent experiments) of 0%. It also gave a mortality at 400 µM (Ae. aegypti L3 larvae; 24 h, read-out: percent mortality 24 hr, 400 uM, L3 larvae, per scoring time) of 0%, a mortality at 400 µM (Ae. aegypti L3 larvae; 48 h, read-out: Toxicity to Aedes aegypti larvae (mortality) 48 hours, 400 μM, L3 larvae, three independent experiments) of 3% and a mortality at 400 µM (Ae. aegypti L3 larvae; 48 h, read-out: percent mortality 48 hr, 400 uM, L3 larvae, per scoring time) of 10%. It also gave a mortality at 400 µM (Ae. aegypti L3 larvae; 72 h, read-out: Cumulative % Mortality (72 hrs), 400 uM, L3 larvae) of 10%, a mortality at 400 µM (Ae. aegypti L3 larvae; 72 h, read-out: Toxicity to Aedes aegypti larvae (mortality) 72 hours, 400 μM, L3 larvae, three independent experiments) of 3% and a mortality at 400 µM (Ae. aegypti L3 larvae; 72 h, read-out: percent mortality 72 hr, 400 uM, L3 larvae, per scoring time) of 0%. The mortality at 400 µM (Ae. aegypti L3 larvae; […], read-out: percent mortality […], 400 uM, L3 larvae, per scoring time) was 0%, the “% of the SCH23390 effect” value (AaDOP2 [3]) was 81% and the “% inhibition of DA activity” value (AaDOP2 [3]; LOPAC1280 screen hits) was 81%. It also gave an inhibition at 10 µM (Isdop2) of 72%.

For `CNC[C@H](O)c1ccc(O)c(O)c1` (racemic) [(±)-Epinephrine], the “% of DHX” value (AaDOP2 [1]) was 81%.

With `C=CCN1CCc2c(cc(O)c(O)c2Cl)C(c2ccccc2)C1` (racemic) [(±)-Chloro-APB] the “% of DHX” value (AaDOP2 [1]; [6]) was 105%.

For `C=C[C@@]1(C)CC(=O)[C@]2(O)[C@@]3(C)[C@@H](O)CCC(C)(C)[C@@H]3[C@H](O)[C@H](OC(C)=O)[C@@]2(C)O1` [Forskolin], the “% of DHX” value (AaDOP2 [1]; [6]) was 34%.

`CCNC(=O)[C@H]1O[C@@H](n2cnc3c(NCc4ccccc4)ncnc32)[C@@H](O)C1O` (stereo partly shown) [N6-Benzyl-NECA] was tested, and the “% of DHX” value (AaDOP2 [1]; [6]) was 36%.

For `OCCN1CCN(CCCN2c3ccccc3Sc3ccc(Cl)cc32)CC1` [Perphenazine, 2-[4-[3-(2-chloro-10H-phenothiazin-10-yl)propyl]piperazin-1-yl]ethanol], the IC50 (AaDOP2 [2]; Avg IC50 (μM), in vitro Concentration Response Curve assay, n = 2, relative to control antagonist Amitriptyline) was 101 nM, the “% of the SCH23390 effect” value (AaDOP2 [3]; [10]) was 95% and the “% inhibition of DA activity” value (AaDOP2 [3]; LOPAC1280 screen hits) was 95%. The inhibition at 10 µM (Isdop2) was 76%.

In the case of `Oc1ccc(C2CNCCc3c2cc(O)c(O)c3Cl)cc1` (stereo not shown) [Fenoldopam], the “% of DHX” value (AaDOP2 [1]; [6]) is reported as 31%.

With `NC1CCc2cc(O)c(O)cc2C1` (stereo not shown) [6,7-ADTN] the “% of DHX” value (AaDOP2 [1]; [6]) was 131%.

In the case of `C[C@H]1C[C@H]2[C@@H]3CCC4=CC(=O)C=C[C@]4(C)[C@@]3(F)[C@@H](O)C[C@]2(C)[C@@]1(O)C(=O)CO` [Betamethasone], the “% of DHX” value (AaDOP2 [1]; [6]) is reported as 101%.

For `CC[C@@H](CO)NC(=O)[C@@H]1C=C2c3cccc4[nH]cc(c34)C[C@H]2N(C)C1` [Methylergonovine], the “% of DHX” value (AaDOP2 [1]; [6]) was 47%.

From patent US20140350081A1, “INSECT G-COUPLED RECEPTORS USEFUL AS TARGETS FOR INSECTICIDES AND COMPOUNDS AND REAGENTS IDENTIFIED USING THE SAME” (priority 2011, published 2014)
